One compound from patent US8697662B2, “Methods for treating Kaposi sarcoma” (PTC Therapeutics, Inc., priority 2009, dated 2014) can be followed below.

One data set has as its system HT1080 spheroids. Briefly: 3-dimensional growth of HT1080 spheroids (DNA content, BrdU, morphology). Type of data set: cell-based, human. The protocol: Experimental Design. HT1080 cells grown as a monolayer were trypsinized and seeded onto a 0.75% agar noble base to prevent the cells from attaching to the bottom of the tissue culture plate and to allow/promote the cells to self-adhere and grow as 3-dimensional spheroids. […] The cells were incubated for 22 and 45 hours at 37° C., in the presence of a 10% CO2 atmosphere. Spheroids were visually checked daily for morphological changes and a medium was replenished two times per week. […] These pulse labeled spheroids were then harvested, washed and trypsinized (triple action solution, Gibco), pelleted and prepared for FACS analysis with a FITC BrdU Flow Kit, (BD Pharmingen). Cells were fixed and permeabilized with paraformadehyde and DNA stained with 7-AAD followed by incubation with an antibody which specifically recognizes […] incorporated into DNA. As described in Section 9.3.1.4. Cells were analyzed and sorted by 7-AAD signal (DNA content) to determine cell cycle phase, and BrdU content (percent actively synthesizing DNA).
Spheroids, prepared as above, were treated with either vehicle alone (0.5% DMSO v/v final) added to the media or a Compounds provided herein (10 nM or 50 nM final concentration) in media to which vehicle has been added.

Data set [1] in a line: Cardiovascular safety pharmacology study in awake telemeterized dogs. It is filed as in vivo, beagle dogs. Particulars: single oral doses of 30, 60, and 120 mg/kg, male dogs.
For the next data set, the target named is T1, CYP2D6 (Homo sapiens, UniProt P10635).
T1 construct: host or cells: human hepatic microsomes or human recombinant isoenzymes
T1 sequence (P10635 whole entry): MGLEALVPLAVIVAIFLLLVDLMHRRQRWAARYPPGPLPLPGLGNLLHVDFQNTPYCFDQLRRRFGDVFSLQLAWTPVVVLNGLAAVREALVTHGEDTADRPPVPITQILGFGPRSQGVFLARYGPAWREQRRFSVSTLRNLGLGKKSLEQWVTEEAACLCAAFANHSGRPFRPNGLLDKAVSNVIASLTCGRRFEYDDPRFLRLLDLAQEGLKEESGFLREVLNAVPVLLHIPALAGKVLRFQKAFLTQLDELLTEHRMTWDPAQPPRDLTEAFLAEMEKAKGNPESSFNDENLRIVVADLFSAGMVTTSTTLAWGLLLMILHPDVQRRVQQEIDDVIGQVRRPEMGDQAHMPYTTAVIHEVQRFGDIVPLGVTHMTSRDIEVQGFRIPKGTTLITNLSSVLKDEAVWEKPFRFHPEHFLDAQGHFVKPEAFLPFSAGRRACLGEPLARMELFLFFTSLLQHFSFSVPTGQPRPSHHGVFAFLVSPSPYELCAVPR
Briefly: CYP inhibition in human hepatic microsomes or recombinant isoenzymes: CYP2D6. It is filed as in vitro ADME. An excerpt: It is possible that in certain clinical trial subjects, such agents may need to be adjusted for dosing or replaced by alternative agents that are not metabolized by CYP2D6, particularly when such agents may have a low therapeutic index.

Data set [2] in a line: Micronucleus study in rats by the oral route. Type of data set: in vivo. The protocol: Genotoxicity was assessed in a battery of in vitro and in vivo studies that included a bacterial reverse mutation study, a chromosome aberration study in Chinese hamster ovary (CHO) cells, and a micronucleus study in rats by the oral route. The in vitro studies were performed in the presence and absence of an exogenous metabolic activation system.

Data set [3] in a line: 28-day oral toxicity study in dogs with 15-day recovery.
Method: The L23 vehicle was used. […] All studies in the toxicology program were conducted according to GLP regulations.
For another data set, the system named is SY5Y xenografts. In words: Tumor growth inhibition in subcutaneous SY5Y neuroblastoma xenografts. Type of data set: in vivo, athymic nude mice. As for the experimental part:
Experimental Design. SY5Y cells are derived from a human neuroblastoma, a childhood tumor arising in neural crest cells. SY5Y cells (1×10^7 cells/mouse) were implanted subcutaneously in male athymic nude mice.
Tumor size was measured by calipers at periodic intervals. When the average tumor size in a group exceeded 2000 mm^3, the mice in the group were sacrificed and excised tumors were assayed for intratumoral VEGF concentration as described in Section 9.1.1.1.

The next data set relates to HT1080 cells. In words: Anchorage-independent colony formation of HT1080 cells in agar. Type of data set: cell-based, human. Particulars: 10 and 50 nM, day 18; not statistically significant. The protocol: Experimental Design. HT1080 cells growing in monolayer were trypsinized, counted and suspended in a 0.35% agar noble/1× complete DMEM solution at 37° C. at a concentration of 2,500 cells/mL. One ml of this solution was layered over a semisolid base consisting of 0.5 mL of 0.75% agar noble/1× complete DMEM in a six well tissue culture plate. […] Tissue culture plates were then returned to the incubator and colonies were allowed to form. […] On day 18 the vehicle-treated wells had colonies of sufficient size to count (>50 cells/colony). At this time, for increased visualization, 1.5 mL of a 2× working volume of (3-(4,5-Dimethylthiazol-2-yl)-2,5-diphenyltetrazolium bromide, a tetrazole) (MTT, Invitrogen, Cat #C35007) was added and the plates were returned to the incubator for 2 hours until colonies were stained by conversion of the MTT to purple formazan crystals. Colonies were then visually counted under a dissecting microscope.

Marks after values point to notes of the source that are not given here.

With `COc1ccc(C2c3[nH]c4ccc(Cl)cc4c3CCN2C(=O)Oc2ccc(Cl)cc2)cc1` (racemic) [Compound #10], in the data set on HT1080 spheroids (HT1080 spheroids, 24 or 48 hours), the “percentage of cells that incorporated BrdU (cells in S-phase) (in words)” value is on record as “not significantly altered”. In addition, the “spheroid morphology (in words)” value in the data set on HT1080 spheroids (maintained in the presence of compound for three weeks, data not shown) is “no obvious morphological changes”. Also, the “cell cycle distribution of HT1080 spheroids (in words)” value with HT1080 spheroids (treated for 24 hours) and with HT1080 spheroids (treated for 48 hours) was “not affected” each time. For the same compound, the “cardiovascular or electrocardiographic (including QT interval) parameters” value in data set [1] is “no meaningful changes”. Also, the “inhibition of CYP2D6 isoenzyme (in words)” value on CYP2D6 is reported as “inhibits the activity”. The genotoxic effects result in data set [2] is “no evidence of genotoxic effects”. The “dose at which maximal exposures occurred” value in data set [3] (dogs, 5, 15, and 30 mg/kg/dose BID, 28 days) was 30 mg/kg/dose BID. For the same compound, the clinical tolerability entry in data set [3] (dogs, low- and mid-dose levels (5, 15 mg/kg/dose BID), 28 days) was “clinically well tolerated”. In data set [3] (dogs, oral capsules), the “NOAEL for 28-days” value stood at 15 mg/kg/dose BID. Also, the “Mean % Inhibition of Intratumoral VEGF vs Vehicle at Sacrifice” value in the data set on SY5Y xenografts (50 mg/kg QD, 250 mg/kg per week (Table 18), oral 5 days per week) is given as 96* %. Further, the “mean tumor size (in words)” value in the data set with SY5Y xenografts (through 15-days of dosing) is given as “essentially eliminated any increase in mean tumor size”. Further, the “number of colonies formed (in words)” value with HT1080 cells is given as “modest trend toward a reduced number of colonies”.
